ChEMBL document CHEMBL4507260 (2021)

How the values were obtained:
Conditions in all cases: Compound concentration 1000.0 nM
[1] = target: Cyclin-dependent kinase 19 (Homo sapiens) (UniProt Q9BWU1)
[2] = test system: Tyrosine-protein kinase ABL1 (Homo sapiens), P00519 [F317L]
[3] = test system: Tyrosine-protein kinase ABL1 (Homo sapiens), P00519 [F317I]
[4] = test system: Receptor-type tyrosine-protein kinase FLT3 (Homo sapiens), P36888 [N841I]
[5] = target: Interleukin-1 receptor-associated kinase 3 (Homo sapiens) (UniProt Q9Y616)
[6] = target: Tyrosine-protein kinase Yes (Homo sapiens) (UniProt P07947)
[7] = target: Myotonin-protein kinase (Homo sapiens) (UniProt Q09013)
[8] = target: Cytoplasmic tyrosine-protein kinase BMX (Homo sapiens) (UniProt P51813)
[9] = target: Serine/threonine-protein kinase B-raf (Homo sapiens) (UniProt P15056)
[10] = target: Serine/threonine-protein kinase pim-2 (Homo sapiens) (UniProt Q9P1W9)
[11] = target: Serine/threonine-protein kinase PAK 4 (Homo sapiens) (UniProt O96013)
[12] = target: Myosin light chain kinase, smooth muscle (Homo sapiens) (UniProt Q15746)
[13] = target: Casein kinase I isoform alpha (Homo sapiens) (UniProt P48729)
[14] = target: Mitogen-activated protein kinase kinase kinase 14 (Homo sapiens) (UniProt Q99558)
[15] = target: Serine/threonine-protein kinase OSR1 (Homo sapiens) (UniProt O95747)
[16] = target: Ribosomal protein S6 kinase alpha-3 (Homo sapiens) (UniProt P51812)
[17] = target: Tyrosine-protein kinase JAK2 (Homo sapiens) (UniProt O60674)
[18] = target: Platelet-derived growth factor receptor alpha (Homo sapiens) (UniProt P16234)
[19] = target: Calcium/calmodulin-dependent protein kinase type II subunit alpha (Homo sapiens) (UniProt Q9UQM7)
[20] = test system: Phosphatidylinositol 4,5-bisphosphate 3-kinase catalytic subunit alpha isoform (Homo sapiens), P42336 [E545K]
[21] = target: Receptor-type tyrosine-protein kinase FLT3 (Homo sapiens) (UniProt P36888)
[22] = target: Serine/threonine-protein kinase 38 (Homo sapiens) (UniProt Q15208)
[23] = target: Casein kinase I isoform gamma-1 (Homo sapiens) (UniProt Q9HCP0)
[24] = target: Death-associated protein kinase 1 (Homo sapiens) (UniProt P53355)
[25] = target: Dual specificity protein kinase CLK3 (Homo sapiens) (UniProt P49761)
[26] = target: Ephrin type-A receptor 6 (Homo sapiens) (UniProt Q9UF33)
[27] = target: Serine/threonine-protein kinase TBK1 (Homo sapiens) (UniProt Q9UHD2)
[28] = target: Ribosomal protein S6 kinase alpha-5 (Homo sapiens) (UniProt O75582)
[29] = target: Megakaryocyte-associated tyrosine-protein kinase (Homo sapiens) (UniProt P42679)
[30] = target: Cyclin-dependent kinase 2 homolog (Plasmodium falciparum (isolate 3D7)) (UniProt P61075)
[31] = test system: Tyrosine-protein kinase ABL1 (Homo sapiens), P00519 [H396P]
[32] = target: Protein-tyrosine kinase 2-beta (Homo sapiens) (UniProt Q14289)
[33] = target: Dual specificity tyrosine-phosphorylation-regulated kinase 1B (Homo sapiens) (UniProt Q9Y463)
[34] = test system: Mast/stem cell growth factor receptor Kit (Homo sapiens), P10721 [V559D,V654A]
[35] = test system: Tyrosine-protein kinase ABL1 (Homo sapiens), P00519 [T315I]
[36] = target: Ribosomal protein S6 kinase alpha-3 (Homo sapiens) (UniProt P51812); remark: listed apart in the source
[37] = target: Calcium/calmodulin-dependent protein kinase type II subunit gamma (Homo sapiens) (UniProt Q13555)
[38] = target: TGF-beta receptor type-2 (Homo sapiens) (UniProt P37173)
[39] = target: Calcium/calmodulin-dependent protein kinase type IV (Homo sapiens) (UniProt Q16566)
[40] = target: Leukocyte tyrosine kinase receptor (Homo sapiens) (UniProt P29376)
[41] = target: TGF-beta receptor type-1 (Homo sapiens) (UniProt P36897)
[42] = target: Rho-associated protein kinase 2 (Homo sapiens) (UniProt O75116)
[43] = target: Cyclin-dependent kinase 5 (Homo sapiens) (UniProt Q00535)
[44] = target: Mitogen-activated protein kinase 1 (Homo sapiens) (UniProt P28482)
[45] = target: Myosin-IIIa (Homo sapiens) (UniProt Q8NEV4)

Sequence of Ribosomal protein S6 kinase alpha-3 (Homo sapiens) (P51812 whole entry): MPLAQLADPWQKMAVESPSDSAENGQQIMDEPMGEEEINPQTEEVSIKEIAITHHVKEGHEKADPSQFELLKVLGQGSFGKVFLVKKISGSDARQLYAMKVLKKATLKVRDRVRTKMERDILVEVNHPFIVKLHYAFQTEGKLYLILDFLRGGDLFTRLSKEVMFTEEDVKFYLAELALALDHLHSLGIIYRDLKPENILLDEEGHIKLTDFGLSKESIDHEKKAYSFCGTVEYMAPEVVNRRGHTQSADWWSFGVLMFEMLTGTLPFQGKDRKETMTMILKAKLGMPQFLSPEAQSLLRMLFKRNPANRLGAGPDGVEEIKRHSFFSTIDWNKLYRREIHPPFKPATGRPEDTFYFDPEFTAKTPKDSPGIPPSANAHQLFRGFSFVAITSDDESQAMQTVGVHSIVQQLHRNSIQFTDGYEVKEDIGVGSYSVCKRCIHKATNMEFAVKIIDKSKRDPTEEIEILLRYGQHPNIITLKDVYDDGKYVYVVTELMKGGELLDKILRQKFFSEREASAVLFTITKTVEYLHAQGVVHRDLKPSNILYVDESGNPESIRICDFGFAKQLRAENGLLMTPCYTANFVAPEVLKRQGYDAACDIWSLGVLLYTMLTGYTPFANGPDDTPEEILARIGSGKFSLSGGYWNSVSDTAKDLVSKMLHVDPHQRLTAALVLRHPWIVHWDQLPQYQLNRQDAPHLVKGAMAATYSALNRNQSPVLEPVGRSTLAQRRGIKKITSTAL
Sequence of Cyclin-dependent kinase 2 homolog (Plasmodium falciparum (isolate 3D7)) (P61075 whole entry): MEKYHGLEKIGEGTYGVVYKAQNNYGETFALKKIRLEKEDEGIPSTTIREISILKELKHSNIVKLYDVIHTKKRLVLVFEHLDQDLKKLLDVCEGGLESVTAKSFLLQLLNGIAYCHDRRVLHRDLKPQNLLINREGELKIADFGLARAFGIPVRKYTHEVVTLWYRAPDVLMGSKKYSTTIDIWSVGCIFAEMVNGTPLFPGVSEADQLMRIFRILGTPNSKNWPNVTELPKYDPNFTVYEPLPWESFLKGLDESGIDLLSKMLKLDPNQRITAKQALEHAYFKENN
Sequence of Mitogen-activated protein kinase 1 (Homo sapiens) (P28482 whole entry): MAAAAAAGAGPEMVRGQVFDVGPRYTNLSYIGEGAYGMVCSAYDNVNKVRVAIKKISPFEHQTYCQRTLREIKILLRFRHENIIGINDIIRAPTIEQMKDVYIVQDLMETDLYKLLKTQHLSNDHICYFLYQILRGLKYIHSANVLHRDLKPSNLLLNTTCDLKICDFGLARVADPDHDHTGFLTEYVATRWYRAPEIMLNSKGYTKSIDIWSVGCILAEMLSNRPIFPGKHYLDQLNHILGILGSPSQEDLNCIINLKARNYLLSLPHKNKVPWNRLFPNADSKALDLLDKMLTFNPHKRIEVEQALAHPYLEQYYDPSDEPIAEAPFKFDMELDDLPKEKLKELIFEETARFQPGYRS
Sequence of Death-associated protein kinase 1 (Homo sapiens) (P53355 whole entry, looked up): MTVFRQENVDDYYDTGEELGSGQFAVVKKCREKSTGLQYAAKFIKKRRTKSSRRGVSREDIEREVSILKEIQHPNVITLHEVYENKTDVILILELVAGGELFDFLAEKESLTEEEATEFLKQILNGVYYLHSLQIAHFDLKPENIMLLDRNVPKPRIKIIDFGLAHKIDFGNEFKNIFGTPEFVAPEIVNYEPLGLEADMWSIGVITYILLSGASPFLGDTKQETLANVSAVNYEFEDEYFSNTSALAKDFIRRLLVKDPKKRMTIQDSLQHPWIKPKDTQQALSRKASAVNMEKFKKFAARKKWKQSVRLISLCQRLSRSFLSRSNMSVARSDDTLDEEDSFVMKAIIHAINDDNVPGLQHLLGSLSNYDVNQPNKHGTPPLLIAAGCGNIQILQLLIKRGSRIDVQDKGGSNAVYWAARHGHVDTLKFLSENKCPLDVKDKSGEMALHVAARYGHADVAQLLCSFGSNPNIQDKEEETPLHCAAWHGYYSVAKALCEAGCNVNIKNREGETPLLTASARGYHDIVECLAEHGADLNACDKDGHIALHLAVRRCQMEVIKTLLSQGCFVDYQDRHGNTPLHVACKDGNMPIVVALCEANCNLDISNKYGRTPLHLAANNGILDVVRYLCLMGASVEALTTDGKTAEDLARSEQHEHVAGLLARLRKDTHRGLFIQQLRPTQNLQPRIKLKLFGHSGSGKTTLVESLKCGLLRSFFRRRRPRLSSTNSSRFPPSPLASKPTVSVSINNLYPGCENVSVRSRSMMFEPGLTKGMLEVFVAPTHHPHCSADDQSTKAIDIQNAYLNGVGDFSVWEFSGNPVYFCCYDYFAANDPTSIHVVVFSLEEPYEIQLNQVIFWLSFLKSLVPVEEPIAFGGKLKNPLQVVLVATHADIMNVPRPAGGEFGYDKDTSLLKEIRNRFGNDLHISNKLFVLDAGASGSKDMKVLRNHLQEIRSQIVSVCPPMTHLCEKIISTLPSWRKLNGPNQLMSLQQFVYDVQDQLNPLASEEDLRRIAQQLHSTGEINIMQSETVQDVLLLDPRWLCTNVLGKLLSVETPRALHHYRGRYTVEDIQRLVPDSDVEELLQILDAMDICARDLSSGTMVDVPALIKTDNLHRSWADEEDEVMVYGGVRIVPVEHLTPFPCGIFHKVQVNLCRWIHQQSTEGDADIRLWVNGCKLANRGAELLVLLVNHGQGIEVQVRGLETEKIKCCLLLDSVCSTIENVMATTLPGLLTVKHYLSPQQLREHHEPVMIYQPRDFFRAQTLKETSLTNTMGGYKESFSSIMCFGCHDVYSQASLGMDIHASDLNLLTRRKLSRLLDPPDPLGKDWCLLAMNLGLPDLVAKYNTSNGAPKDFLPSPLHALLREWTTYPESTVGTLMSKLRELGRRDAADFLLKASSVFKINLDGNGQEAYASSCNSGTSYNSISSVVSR
Sequence of Leukocyte tyrosine kinase receptor (Homo sapiens) (P29376 whole entry): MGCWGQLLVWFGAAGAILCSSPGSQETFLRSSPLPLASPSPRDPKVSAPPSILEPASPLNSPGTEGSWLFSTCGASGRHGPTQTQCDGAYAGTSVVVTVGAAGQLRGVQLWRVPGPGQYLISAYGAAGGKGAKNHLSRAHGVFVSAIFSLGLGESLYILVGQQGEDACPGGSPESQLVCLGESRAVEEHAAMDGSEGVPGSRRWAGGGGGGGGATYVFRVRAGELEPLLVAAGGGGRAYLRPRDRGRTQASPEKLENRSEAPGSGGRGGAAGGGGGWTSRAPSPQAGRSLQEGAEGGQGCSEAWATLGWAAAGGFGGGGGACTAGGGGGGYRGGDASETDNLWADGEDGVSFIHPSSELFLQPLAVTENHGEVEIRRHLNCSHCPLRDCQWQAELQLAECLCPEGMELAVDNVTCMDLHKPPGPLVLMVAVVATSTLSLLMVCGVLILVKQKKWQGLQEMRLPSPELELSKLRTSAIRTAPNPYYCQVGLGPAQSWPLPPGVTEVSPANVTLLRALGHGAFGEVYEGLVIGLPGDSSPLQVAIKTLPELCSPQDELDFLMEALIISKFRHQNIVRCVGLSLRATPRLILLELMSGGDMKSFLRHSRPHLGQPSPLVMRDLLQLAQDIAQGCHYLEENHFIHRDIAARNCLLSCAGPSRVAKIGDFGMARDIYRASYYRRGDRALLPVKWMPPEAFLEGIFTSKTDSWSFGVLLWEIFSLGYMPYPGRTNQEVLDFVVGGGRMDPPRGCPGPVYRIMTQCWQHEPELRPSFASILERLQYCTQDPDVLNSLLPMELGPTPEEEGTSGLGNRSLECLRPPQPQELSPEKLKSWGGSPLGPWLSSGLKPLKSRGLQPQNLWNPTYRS
Sequence of Casein kinase I isoform gamma-1 (Homo sapiens) (Q9HCP0 whole entry, looked up, canonical isoform): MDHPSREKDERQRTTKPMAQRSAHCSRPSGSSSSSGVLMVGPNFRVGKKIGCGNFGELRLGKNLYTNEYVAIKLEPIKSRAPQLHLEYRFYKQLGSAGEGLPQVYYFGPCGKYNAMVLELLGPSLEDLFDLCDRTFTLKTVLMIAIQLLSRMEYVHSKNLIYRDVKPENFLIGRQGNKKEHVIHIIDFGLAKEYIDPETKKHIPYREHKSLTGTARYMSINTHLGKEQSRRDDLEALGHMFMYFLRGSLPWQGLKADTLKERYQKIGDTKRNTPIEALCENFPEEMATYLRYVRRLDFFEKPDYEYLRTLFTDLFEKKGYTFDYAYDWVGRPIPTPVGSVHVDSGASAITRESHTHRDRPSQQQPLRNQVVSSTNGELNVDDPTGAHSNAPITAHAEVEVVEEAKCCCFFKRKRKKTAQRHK
Sequence of Dual specificity protein kinase CLK3 (Homo sapiens) (P49761 whole entry, looked up): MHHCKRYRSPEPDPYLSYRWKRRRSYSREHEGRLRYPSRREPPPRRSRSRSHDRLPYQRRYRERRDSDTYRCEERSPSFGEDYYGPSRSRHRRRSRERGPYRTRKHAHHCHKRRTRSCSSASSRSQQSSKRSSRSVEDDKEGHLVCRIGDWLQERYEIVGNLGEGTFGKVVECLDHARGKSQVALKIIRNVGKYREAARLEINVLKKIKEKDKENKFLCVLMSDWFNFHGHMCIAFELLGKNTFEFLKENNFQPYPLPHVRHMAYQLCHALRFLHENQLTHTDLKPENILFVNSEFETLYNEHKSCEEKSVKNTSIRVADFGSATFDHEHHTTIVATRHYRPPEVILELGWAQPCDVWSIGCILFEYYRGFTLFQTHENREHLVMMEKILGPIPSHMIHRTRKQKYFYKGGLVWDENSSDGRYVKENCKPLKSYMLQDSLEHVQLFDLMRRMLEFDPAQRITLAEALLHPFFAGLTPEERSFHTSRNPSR
Sequence of Casein kinase I isoform alpha (Homo sapiens) (P48729 2-337 limits assumed): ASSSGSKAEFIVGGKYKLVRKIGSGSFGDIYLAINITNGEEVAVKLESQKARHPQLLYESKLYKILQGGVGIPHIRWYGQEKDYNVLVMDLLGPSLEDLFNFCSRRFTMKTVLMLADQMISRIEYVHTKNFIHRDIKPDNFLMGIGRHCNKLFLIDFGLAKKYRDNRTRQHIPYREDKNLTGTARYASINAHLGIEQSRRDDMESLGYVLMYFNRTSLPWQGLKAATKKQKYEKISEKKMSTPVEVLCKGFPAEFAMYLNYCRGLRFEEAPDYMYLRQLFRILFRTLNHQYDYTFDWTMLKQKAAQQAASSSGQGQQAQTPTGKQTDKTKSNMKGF

c1ccc(N2CCN(Cc3nc4ccccc4[nH]3)CC2)nc1 [ABT-724]
residual activity [1]: 87%
residual activity [2]: 100%
residual activity [3]: 100%
residual activity [4]: 100%
residual activity [5]: 100%
residual activity [6]: 100%
residual activity [7]: 100%
residual activity [8]: 100%
residual activity [9]: 100%
residual activity [10]: 85%
residual activity [11]: 93%
residual activity [12]: 80%
residual activity [13]: 93%
residual activity [14]: 94%
residual activity [15]: 100%
residual activity [16]: 100%
residual activity [17]: 100%
residual activity [18]: 100%
residual activity [19]: 100%
residual activity [20]: 59%
residual activity [21]: 100%
residual activity [22]: 89%
residual activity [23]: 100%
residual activity [24]: 100%
residual activity [25]: 100%
residual activity [26]: 100%
residual activity [27]: 77%
residual activity [28]: 100%
residual activity [29]: 100%
residual activity [30]: 100%
residual activity [31]: 100%
residual activity [32]: 100%
residual activity [33]: 100%
residual activity [34]: 100%
residual activity [35]: 100%
residual activity [36]: 100%
residual activity [37]: 100%
residual activity [38]: 88%
residual activity [39]: 88%
residual activity [40]: 100%
residual activity [41]: 97%
residual activity [42]: 100%
residual activity [43]: 100%
residual activity [44]: 100%
residual activity [45]: 100%

CSc1cccnc1N1CCN(Cc2nc3ccccc3[nH]2)CC1 [A-769]
residual activity [1]: 96%
residual activity [2]: 100%
residual activity [3]: 74%
residual activity [4]: 100%
residual activity [5]: 94%
residual activity [6]: 100%
residual activity [7]: 81%
residual activity [8]: 100%
residual activity [9]: 89%
residual activity [10]: 96%
residual activity [11]: 100%
residual activity [12]: 94%
residual activity [13]: 72%
residual activity [14]: 100%
residual activity [15]: 78%
residual activity [16]: 83%
residual activity [17]: 65%
residual activity [18]: 89%
residual activity [19]: 100%
residual activity [20]: 74%
residual activity [21]: 91%
residual activity [22]: 88%
residual activity [23]: 100%
residual activity [24]: 100%
residual activity [25]: 85%
residual activity [26]: 100%
residual activity [27]: 100%
residual activity [28]: 100%
residual activity [29]: 45%
residual activity [30]: 92%
residual activity [31]: 77%
residual activity [32]: 100%
residual activity [33]: 91%
residual activity [34]: 100%
residual activity [35]: 99%
residual activity [36]: 77%
residual activity [37]: 100%
residual activity [38]: 99%
residual activity [39]: 100%
residual activity [40]: 89%
residual activity [41]: 100%
residual activity [42]: 74%
residual activity [43]: 99%
residual activity [44]: 93%
residual activity [45]: 100%
